Test results reported in ChEMBL document CHEMBL4476877, “Treatment of COPD, gastro-esophageal reflux disease (GERD), food allergies and other gastrointestinal conditions and disorders ameliorated by proper histamine management using a combination of histidine decarboxylase inhibitors, LRA drugs, anti-H1 and/or anti-H2 drugs” (2012).
“And” between values parts separate entries of the source, which are not always exact repeats. Identical values can stand only once. Each block holds one compound with its values, some of them ahead of it. The source made the active and inactive calls. No cut-off for these calls is given here.

Key:
Homo sapiens [1] = assay: Improvement in disease symptoms in GERD patient assessed as reduction in cough at 10 mg dosed daily; type: functional, organism-based
Homo sapiens [2] = assay: Improvement in disease symptoms in GERD patient assessed as reduction in heartburns at 10 mg dosed daily; type: functional, organism-based
Homo sapiens [3] = assay: Improvement in disease symptoms in GERD patient assessed as improvement in global disease scores at 10 mg dosed daily; type: functional, organism-based
Homo sapiens [4] = assay: Improvement in disease symptoms in GERD patient assessed as reduction in regurgitation at 10 mg dosed daily; type: functional, organism-based
Homo sapiens [5] = assay: Improvement in disease symptoms in GERD patient assessed as improvement in global disease scores at 150 mg dosed daily; type: functional, organism-based
Homo sapiens [6] = assay: Improvement in disease symptoms in GERD patient assessed as reduction in heartburns at 150 mg dosed daily; type: functional, organism-based
Homo sapiens [7] = assay: Improvement in disease symptoms in GERD patient assessed as reduction in regurgitation at 150 mg dosed daily; type: functional, organism-based
Homo sapiens [8] = assay: Improvement in disease symptoms in GERD patient assessed as reduction in cough at 150 mg dosed daily; type: functional, organism-based
Homo sapiens [9] = assay: Prevention of food allergy in pediatric patient with history of anaphylaxis due to nut allergy assessed as reduction in stomach pain at 200 mg dosed daily for 6 months co-administered with 10 mg Montelukast dosed daily; type: functional, organism-based
[10] = biological target: T1, Histidine decarboxylase (Homo sapiens) (UniProt P19113); assay: Inhibition of recombinant human HDC (1 to 512 residues) expressed in Escherichia coli BL21 (DE3) pLysS assessed as reduction in [14C]CO2 production from L-[U-14C]histidine at 10 uM relative to untreated control
T1 sequence (whole entry): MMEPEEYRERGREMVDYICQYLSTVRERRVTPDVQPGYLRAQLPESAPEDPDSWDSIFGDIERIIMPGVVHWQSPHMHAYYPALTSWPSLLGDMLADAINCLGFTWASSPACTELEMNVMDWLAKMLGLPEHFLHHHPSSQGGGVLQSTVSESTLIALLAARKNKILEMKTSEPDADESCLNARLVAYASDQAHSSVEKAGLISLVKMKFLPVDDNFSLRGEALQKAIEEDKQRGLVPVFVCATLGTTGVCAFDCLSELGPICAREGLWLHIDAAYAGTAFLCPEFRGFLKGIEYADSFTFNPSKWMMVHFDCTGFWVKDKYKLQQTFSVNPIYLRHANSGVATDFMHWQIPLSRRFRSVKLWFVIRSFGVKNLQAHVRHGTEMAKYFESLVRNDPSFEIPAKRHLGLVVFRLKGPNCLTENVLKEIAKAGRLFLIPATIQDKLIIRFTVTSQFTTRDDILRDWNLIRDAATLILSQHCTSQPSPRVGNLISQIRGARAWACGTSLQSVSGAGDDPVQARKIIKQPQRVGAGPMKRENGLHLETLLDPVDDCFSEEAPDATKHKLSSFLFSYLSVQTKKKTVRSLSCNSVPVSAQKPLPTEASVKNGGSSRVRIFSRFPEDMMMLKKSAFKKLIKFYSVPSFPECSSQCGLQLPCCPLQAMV

Homo sapiens [11] = assay: Improvement in disease symptoms in GERD patient assessed as reduction in regurgitation at 200 mg dosed daily co-treated with 10 mg anti-H1 drug loratadine dosed daily; type: functional, organism-based
Homo sapiens [12] = assay: Prevention of food allergy in pediatric patient with history of anaphylaxis due to nut allergy assessed as reduction in allergic reactions at 200 mg dosed daily for 6 weeks co-administered with 10 mg Montelukast dosed daily; type: functional, organism-based
Homo sapiens [13] = assay: Improvement in disease symptoms in GERD patient assessed as reduction in cough at 200 mg dosed daily; type: functional, organism-based
Homo sapiens [14] = assay: Prevention of food allergy in pediatric patient with history of anaphylaxis due to nut allergy assessed as reduction in allergic reactions at 200 mg dosed daily for 6 months co-administered with 10 mg Montelukast dosed daily; type: functional, organism-based
Homo sapiens [15] = assay: Improvement in disease symptoms in GERD patient assessed as reduction in cough at 200 mg dosed daily co-treated with 150 mg anti-H2 drug Ranitidine dosed daily; type: functional, organism-based
Homo sapiens [16] = assay: Prevention of food allergy in patient with history of anaphylaxis due to allergens assessed as reduction in allergy symptoms to pea nut ingestion at 200 mg dosed daily for 8 months co-administered with 10 mg Montelukast dosed daily; type: functional, organism-based
Homo sapiens [17] = assay: Improvement in disease symptoms in GERD patient assessed as reduction in regurgitation at 200 mg dosed daily co-treated with 150 mg anti-H2 drug Ranitidine dosed daily; type: functional, organism-based
Homo sapiens [18] = assay: Prevention of food allergy in pediatric patient with history of anaphylaxis due to nut allergy assessed as reduction in digestive symptoms at 200 mg dosed daily over 8 months co-administered with 10 mg Montelukast dosed daily; type: functional, organism-based
Homo sapiens [19] = assay: Improvement in disease symptoms in GERD patient assessed as reduction in cough at 200 mg dosed daily co-treated with 10 mg anti-H1 drug loratadine dosed daily and 150 mg anti-H2 drug Ranitidine dosed daily; type: functional, organism-based
Homo sapiens [20] = assay: Prevention of food allergy in patient with history of anaphylaxis due to ingestion of shrimps assessed as reduction in allergy symptoms at 200 mg dosed daily for 6 weeks co-administered with 10 mg Montelukast dosed daily; type: functional, organism-based
Homo sapiens [21] = assay: Prevention of food allergy in patient with history of anaphylaxis due to allergens assessed as reduction in allergy symptoms at 200 mg dosed daily for 6 to 8 weeks co-administered with 10 mg Montelukast dosed daily; type: functional, organism-based
Homo sapiens [22] = assay: Prevention of food allergy in pediatric patient with history of anaphylaxis due to nut allergy assessed as reduction in diarrhea at 200 mg dosed daily for 6 months co-administered with 10 mg Montelukast dosed daily; type: functional, organism-based
Homo sapiens [23] = assay: Prevention of food allergy in pediatric patient with history of anaphylaxis due to nut allergy assessed as reduction in allergic symptoms at 200 mg dosed daily over 8 months co-administered with 10 mg Montelukast dosed daily; type: functional, organism-based
Homo sapiens [24] = assay: Improvement in disease symptoms in GERD patient assessed as reduction in heartburns at 200 mg dosed daily; type: functional, organism-based
Homo sapiens [25] = assay: Improvement in disease symptoms in GERD patient assessed as improvement in global disease scores at 200 mg dosed daily co-treated with 10 mg anti-H1 drug loratadine dosed daily; type: functional, organism-based
Homo sapiens [26] = assay: Improvement in disease symptoms in GERD patient assessed as reduction in heartburns at 200 mg dosed daily co-treated with 10 mg anti-H1 drug loratadine dosed daily and 150 mg anti-H2 drug Ranitidine dosed daily; type: functional, organism-based
Homo sapiens [27] = assay: Improvement in disease symptoms in GERD patient assessed as reduction in regurgitation at 200 mg dosed daily co-treated with 10 mg anti-H1 drug loratadine dosed daily and 150 mg anti-H2 drug Ranitidine dosed daily; type: functional, organism-based
Homo sapiens [28] = assay: Improvement in disease symptoms in GERD patient assessed as reduction in heartburns at 200 mg dosed daily co-treated with 10 mg anti-H1 drug loratadine dosed daily; type: functional, organism-based
Homo sapiens [29] = assay: Improvement in disease symptoms in GERD patient assessed as reduction in heartburns at 200 mg dosed daily co-treated with 150 mg anti-H2 drug Ranitidine dosed daily; type: functional, organism-based
Homo sapiens [30] = assay: Prevention of food allergy in pediatric patient with history of anaphylaxis due to nut allergy assessed as reduction in constipation at 200 mg dosed daily for 6 months co-administered with 10 mg Montelukast dosed daily; type: functional, organism-based
Homo sapiens [31] = assay: Improvement in disease symptoms in GERD patient assessed as improvement in global disease scores at 200 mg dosed daily co-treated 150 mg anti-H2 drug Ranitidine dosed daily; type: functional, organism-based
Homo sapiens [32] = assay: Improvement in disease symptoms in GERD patient assessed as reduction in regurgitation at 200 mg dosed daily; type: functional, organism-based
Homo sapiens [33] = assay: Improvement in disease symptoms in GERD patient assessed as improvement in global disease scores at 200 mg dosed daily; type: functional, organism-based
Homo sapiens [34] = assay: Improvement in disease symptoms in GERD patient assessed as improvement in global disease scores at 200 mg dosed daily co-treated with 10 mg anti-H1 drug loratadine dosed daily and 150 mg anti-H2 drug Ranitidine dosed daily; type: functional, organism-based
Homo sapiens [35] = assay: Improvement in disease symptoms in GERD patient assessed as reduction in cough at 200 mg dosed daily co-treated with 10 mg anti-H1 drug loratadine dosed daily; type: functional, organism-based

SMILES: CCOC(=O)N1CCC(=C2c3ccc(Cl)cc3CCc3cccnc32)CC1
Activity (Homo sapiens [1]): inactive | Activity (Homo sapiens [2]): inactive | Activity (Homo sapiens [3]): inactive | Activity (Homo sapiens [4]): inactive

SMILES: CNC(=C[N+](=O)[O-])NCCSCc1ccc(CN(C)C)o1
Activity (Homo sapiens [5]): inactive | Activity (Homo sapiens [6]): inactive | Activity (Homo sapiens [7]): inactive | Activity (Homo sapiens [8]): inactive

inhibition [10]: 36.5% and 27.9%
SMILES: CCOc1c(N)c2c(c(OCC)c1OCC)C(C1c3c(cc4c(c3OC)OCO4)CCN1C)OC2=O (stereo not given)
Activity (Homo sapiens [9]): Active | Activity (Homo sapiens [11]): Active | Activity (Homo sapiens [12]): Active | Activity (Homo sapiens [13]): inactive | Activity (Homo sapiens [14]): Active | Activity (Homo sapiens [15]): Active | Activity (Homo sapiens [16]): Active | Activity (Homo sapiens [17]): Active | Activity (Homo sapiens [18]): Active | Activity (Homo sapiens [19]): Active | Activity (Homo sapiens [20]): Active | Activity (Homo sapiens [21]): Active | Activity (Homo sapiens [22]): Active | Activity (Homo sapiens [23]): Active | Activity (Homo sapiens [24]): inactive | Activity (Homo sapiens [25]): Active | Activity (Homo sapiens [26]): Active | Activity (Homo sapiens [27]): Active | Activity (Homo sapiens [28]): Active | Activity (Homo sapiens [29]): Active | Activity (Homo sapiens [30]): Active | Activity (Homo sapiens [31]): Active | Activity (Homo sapiens [32]): inactive | Activity (Homo sapiens [33]): inactive | Activity (Homo sapiens [34]): Active | Activity (Homo sapiens [35]): Active
